Results on 26 compounds are retold here after patent publication US9718822B2, “Macrocyclic compounds as Trk kinase inhibitors” (Array BioPharma, Inc., priority 2010, dated 2017).

The target in assay [1] is histidine-tagged recombinant human TrkA, cytoplasmic domain (Homo sapiens (Human), UniProt P04629). As to the kind of experiment: TrkA ELISA Assay. Also: 2.5 nM TrkA. The settings on record: read-out: TrkA Elisa Enzyme Assay IC50. Type of assay: biochemical. As for the experimental part: An enzyme-linked immunosorbant assay (ELISA) was used to assess TrkA kinase activity in the presence of inhibitors. Immulon 4HBX 384-well microtiter plates (Thermo part #8755) were coated with a 0.025 mg/mL solution of poly (Glu, Ala, Tyr; 6:3:1; Sigma P3899). […] The assay buffer consisted of 25 mM MOPS pH 7.5, 0.005% (v/v) Triton X-100 and 5 mM MgCl2. The reaction mixture was removed from the plate by washing with PBS containing 0.1% (v/v) Tween 20. The phosphorylated reaction product was detected using 0.2 μg/mL of a phosphotyrosine specific monoclonal antibody (clone PY20) conjugated to horseradish peroxidase in conjunction with the TMB Peroxidase Substrate System (KPL). After the addition of 1M phosphoric acid, the chromogenic substrate color intensity was quantitated via absorbance at 450 nm. IC50 values were calculated using either a 4 or 5-parameter logistic curve fit.
Table 1 provides averaged IC50 values for compounds of the invention when tested in this assay.

Assay [2] deals with His-tagged recombinant human TrkA (cytoplasmic domain) (Homo sapiens (Human), UniProt P04629). The experiment in a line: TrkA Binding Assay (LanthaScreen Eu Kinase Binding Assay). Here is the method:
The ability of a compound to bind to TrkA was measured by Invitrogen's LanthaScreen™ Eu Kinase Binding Assay. […] After a 60-minute incubation at 22° C., the reaction was measured using the EnVision via TR-FRET dual wavelength detection, and the POC was calculated from the emission ratio. The compound dose response data was fit to a 4-parameter logistic model and IC50 was defined as the concentration of compound at 50 POC.

[3] abbreviates: averaged IC50 values, TR-FRET, 60-minute incubation at 22° C., 2% DMSO final.

Where two headings read alike, the source gives them in different places.

Chain of histidine-tagged recombinant human TrkA, cytoplasmic domain (P04629 440-796): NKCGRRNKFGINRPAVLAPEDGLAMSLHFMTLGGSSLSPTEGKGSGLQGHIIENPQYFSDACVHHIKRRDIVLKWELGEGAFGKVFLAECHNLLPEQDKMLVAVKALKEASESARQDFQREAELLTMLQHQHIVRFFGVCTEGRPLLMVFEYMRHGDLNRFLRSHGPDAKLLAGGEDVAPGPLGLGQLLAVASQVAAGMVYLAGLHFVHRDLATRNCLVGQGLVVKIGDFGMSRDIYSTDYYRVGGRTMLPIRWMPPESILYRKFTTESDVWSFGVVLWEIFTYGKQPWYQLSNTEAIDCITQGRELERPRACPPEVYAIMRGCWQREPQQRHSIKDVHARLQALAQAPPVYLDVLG
Chain of His-tagged recombinant human TrkA (cytoplasmic domain) (P04629 440-796): as above

For `O=C1NCCCNc2ncc(F)cc2[C@H]2CCCN2c2ccn3ncc1c3n2` [Example 13, (6R)-9-fluoro-2,11,13,17,21,22,25-heptaazapentacyclo[17.5.2.0^2,6.0^7,12.0^22,26]hexacosa-1(25),7,9,11,19(26),20,23-heptaen-18-one], the half-maximal inhibitory concentration (IC50) in assay [1] lay in the range of 1 to 100 nM.

As for `O=C1NCCCCOc2ncc(F)cc2[C@H]2CCCN2c2ccn3ncc1c3n2` [Example 10, (6R)-9-fluoro-13-oxa-2,11,18,22,23,26-hexaazapentacyclo[18.5.2.0^2,6.0^7,12.0^23,27]heptacosa-1(26),7,9,11,20(27),21,24-heptaen-19-one], the IC50 in assay [1] and in assay [2] was 1 to 100 nM throughout.

Take `O=C(CO)N1CCOc2ccc(F)cc2[C@H]2CCCN2c2ccn3ncc(c3n2)C1` [Example 23, 1-[(6R)-9-fluoro-13-oxa-2,16,20,21,24-pentaazapentacyclo[16.5.2.0^2,6.0^7,12.0^21,25]pentacosa-1(24),7,9,11,18(25),19,22-heptaen-16-yl]-2-hydroxyethan-1-one]: the IC50 in assay [1] and in assay [2] was 1 to 100 nM in each case.

In the case of `O=C1NC[C@H](O)COc2ccc(F)cc2C2CC(F)(F)CN2c2ccn3ncc1c3n2` (single isomer, unassigned; diastereomer 2) [45 Diastereomer 2], in assay [2] (setting [3]), the IC50 is 1 to 100 nM.

As to `O=C1NC[C@@H](F)Cn2cc(F)cc(c2=O)[C@H]2CCCN2c2ccn3ncc1c3n2` [Example 17, (6R,13R)-9,13-difluoro-2,11,15,19,20,23-hexaazapentacyclo[15.5.2.1^7,11.0^2,6.0^20,24]pentacosa-1(23),7,9,17(24),18,21-hexaene-16,25-dione], the IC50 in assay [1] was 1 to 100 nM.

For the compound `O=C1NCC(O)COc2ncc(F)cc2[C@H]2CCCN2c2ccn3ncc1c3n2` (stereo partly drawn) [Example 6, (6R)-9-fluoro-15-hydroxy-13-oxa-2,11,17,21,22,25-hexaazapentacyclo-[17.5.2.0^2,6.0^7,12.0^22,26]hexacosa-1(25),7,9,11,19(26),20,23-heptaen-18-one], the IC50 was 1 to 100 nM in assay [1] (averaged IC50 values, […] TrkA, 500 μM ATP, 25 minutes at ambient temperature) and 1 to 100 nM in assay [2] (setting [3]).

For `O=C1NCCOc2ccc(F)cc2[C@@H]2C[C@@H](O)CN2c2ccn3ncc1c3n2` [Example 43-B, (4R,6S)-9-fluoro-4-hydroxy-13-oxa-2,16,20,21,24-pentaazapentacyclo [16.5.2.0^2,6.0^7,2.0^21,25]pentacosa-1(24),7,9,11,18(25),19,22-heptaen-17-one], in assay [2] (setting [3]), the IC50 was 100 to 3000 nM.

As to `O=C(O)CN1CCOc2ccc(F)cc2[C@H]2CCCN2c2ccn3ncc(c3n2)C1` [Example 26, 2-[(6R)-9-fluoro-13-oxa-2,16,20,21,24-pentaazapentacyclo[16.5.2.0^2,6.0^7,12.0^21,25]pentacosa-1(24),7,9,11,18(25),19,22-heptaen-16-yl]acetic acid], the IC50 in assay [1] and in assay [2] was 100 to 3000 nM each time.

`O=C1NC[C@@H](O)COc2ccc(F)cc2[C@H]2C[C@@H](O)CN2c2ccn3ncc1c3n2` [Example 44, (4R,6R,15R)-9-fluoro-4,15-dihydroxy-13-oxa-2,17,21,22,25-pentaazapentacyclo [17.5.2.0^2,6.0^7,12.0^22,26]hexacosa-1(25),7(12),8,10,19(26),20,23-heptaen-18-one]: the IC50 in assay [2] fell in the range of 1 to 100 nM.

Regarding `O=C1NC[C@@H](O)COc2ccc(F)cc2[C@@H]2C[C@@H](O)CN2c2ccn3ncc1c3n2` [Example 44-B, (4R,6S,15R)-9-fluoro-4,15-dihydroxy-13-oxa-2,17,21,22,25-pentaazapentacyclo [17.5.2.0^2,6.0^7,12.0^22,26]hexacosa-1(25),7(2),8,10,19(26),20,23-heptaen-18-one], the half-inhibitory concentration (IC50) in assay [2] lay in the range of 1 to 100 nM.

Turning to `O=C1NCCNc2ncc(F)cc2[C@H]2CCCN2c2ccn3ncc1c3n2` [Example 12, (6R)-9-fluoro-2,11,13,16,20,21,24-heptaazapentacyclo[16.5.2.0^2,6.0^7,12.0^21,25]pentacosa-1(24),7,9,11,18(25),19,22-heptaen-17-one], the IC50 in assay [1] is 1 to 100 nM.

On to `Fc1ccc2c(c1)[C@H]1CCCN1c1ccn3ncc(c3n1)CNCCO2` [Example 21, (6R)-9-fluoro-13-oxa-2,16,20,21,24-pentaazapentacyclo[16.5.2.0^2,6.0^7,12.0^21,25]pentacosa-1(24),7,9,11,18(25),19,22-heptaene], for which the half-inhibitory concentration (IC50) in assay [1] was in the range of 100 to 3000 nM.

For the compound `C[C@H]1CNC(=O)c2cnn3ccc(nc23)N2CCC[C@@H]2c2cc(F)cn(c2=O)C1` [Example 35, (6R,13S)-9-fluoro-13-methyl-2, 11, 15,19,20,23-hexaazapentacyclo [15.5.2.1^7,11.0^2,6.0^20,24]pentacosa-1(23),7,9,17(24),18,21-hexaene-16,25-dione], the IC50 in assay [2] fell in the range of 1 to 100 nM.

Take `CC(=O)N1CCOc2ccc(F)cc2[C@H]2CCCN2c2ccn3ncc(c3n2)C1` [Example 22, 1-[(6R)-9-fluoro-13-oxa-2,16,20,21,24-pentaazapentacyclo[16.5.2.0^2,6.0^7,12.0^21,25]pentacosa-1(24),7,9,11,18(25),19,22-heptaen-16-yl]ethan-1-one]: the IC50 in assay [1] lay within 1 to 100 nM.

Take `CC1(C)CNC(=O)c2cnn3ccc(nc23)N2CCC[C@@H]2c2cc(F)cn(c2=O)C1` [Example 40, (6R)-9-fluoro-13,13-dimethyl-2,11,15,19,20,23-hexaazapentacyclo [15.5.2.1^7,11.0^2,6.0^20,24]pentacosa-1(23),7,9,17(24),18,21-hexaene-16,25-dione]: the concentration for half-maximal inhibition (IC50) in assay [2] lay in the range of 1 to 100 nM.

On to `O=C1NC[C@H](O)COc2ccc(F)cc2C2CC(F)(F)CN2c2ccn3ncc1c3n2` (single isomer, unassigned; diastereomer 1) [45 Diastereomer 1], for which, in assay [2] (setting [3]), the IC50 fell in the range of 1 to 100 nM.

Take `CS(=O)(=O)N1CCCOc2ccc(F)cc2[C@H]2CCCN2c2ccn3ncc(c3n2)C1` [Example 27, (6R)-9-fluoro-7-methanesulfonyl-13-oxa-2,17,21,22,25-pentaazapentacyclo[17.5.2.0^2,6.0^7,12.0^22,26]hexacosa-1(25),7,9,11,19(26),20,23-heptaene]: the 50% inhibitory concentration (IC50) in assay [1] lay within 1 to 100 nM.

Turning to `O=C1NC[C@H](O)COc2ccc(F)cc2[C@@H]2C[C@@H](O)CN2c2ccn3ncc1c3n2` [Example 41-B, (4R,6S,15S)-9-fluoro-4,15-dihydroxy-13-oxa-2,17,21,22,25-pentaazapentacyclo [17.5.2.0^2,6.0^7,12.0^22,26]hexacosa-1(25),7(12),8,10,19(26),20,23-heptaen-18-one], the IC50 in assay [2] (setting [3]) lay within 100 to 3000 nM.

As for `CCNC(=O)N1CCCOc2ccc(F)cc2[C@H]2CCCN2c2ccn3ncc(c3n2)C1` [Example 28], the IC50 in assay [1] was in the range of 1 to 100 nM.

For the compound `O=C1NCCOc2ccc(F)cc2[C@H]2C[C@@H](O)CN2c2ccn3ncc1c3n2` [Example 43, (4R,6R)-9-fluoro-4-hydroxy-13-oxa-2,16,20,21,24-pentaazapentacyclo [16.5.2.0^2,6.0^7,12.0^21,25]pentacosa-1(24),7,9,11,18(25),19,22-heptaen-17-one], the IC50 in assay [2] is 1 to 100 nM.

Regarding `O=C1NCCCOc2ccc(F)cc2[C@H]2C[C@@H](O)CN2c2ccn3ncc1c3n2` [Example 42, (4R,6R)-9-fluoro-4-hydroxy-13-oxa-2,17,21,22,25-pentaazapentacyclo [17.5.2.0^2,6.0^7,12.0^22,26]hexacosa-1(25),7(12),8,10,19(26),20,23-heptaen-18-one], the IC50 in assay [2] lay within 1 to 100 nM.

Turning to `O=C1NCCCOc2ccc(F)cc2[C@@H]2C[C@@H](O)CN2c2ccn3ncc1c3n2` [Example 42-B, (4R,6S)-9-fluoro-4-hydroxy-13-oxa-2,17,21,22,25-pentaazapentacyclo [17.5.2.0^2,6.0^7,12.0^22,26]hexacosa-1(25),7(12),8,10,19(26),20,23-heptaen-18-one], the IC50 in assay [2] (setting [3]) is 100 to 3000 nM.

On to `Fc1ccc2c(c1)[C@H]1CCCN1c1ccn3ncc(c3n1)CNCCCO2` [Example 24, (6R)-9-fluoro-13-oxa-2,17,21,22,25-pentaazapentacyclo[17.5.2.0^2,6.0^7,12.0^22,26]hexacosa-1(25),7,9,11,19(26),20,23-heptaene], for which the IC50 in assay [1] fell in the range of 100 to 3000 nM.

`CS(=O)(=O)N1CCOc2ccc(F)cc2[C@H]2CCCN2c2ccn3ncc(c3n2)C1` [Example 25, (6R)-9-fluoro-16-methanesulfonyl-13-oxa-2,16,20,21,24-pentaazapentacyclo[16.5.2.0^2,6.0^7,12.0^21,25]pentacosa-1(24),7,9,11,18(25),19,22-heptaene]: the IC50 in assay [1] lay in the range of 1 to 100 nM.

As to `CC1(C)CNC(=O)c2cnn3ccc(nc23)N2CCC[C@@H]2c2cc(F)cnc2OC1` [Example 36, (6R)-9-fluoro-15,15-dimethyl-13-oxa-2,11,17,21,22,25-hexaazapentacyclo [17.5.2.0^2,6.0^7,12.0^22,26]hexacosa-1(25),7,9,11,19(26),20,23-heptaen-18-one], in assay [2], the IC50 fell in the range of 1 to 100 nM.

As to `CCNC(=O)N1CCOc2ccc(F)cc2[C@H]2CCCN2c2ccn3ncc(c3n2)C1` [Example 29, (6R)—N-ethyl-9-fluoro-13-oxa-2,16,20,21,24-pentaazapentacyclo-[16.5.2.0^2,6.0^7,12.0^21,25]pentacosa-1(24),7,9,11,18(25),19,22-heptaene-16-carboxamide], in assay [1], the IC50 lay in the range of 1 to 100 nM.
